Structures can show the parent of a compound that is named as a salt.
What was measured:
[1] = hydrochloride salt, cited from earlier work
[2] = system: IOP; settings: cited from earlier work; for efficiency in decreasing the 24-h IOP: compared with agents that decrease AH production
[3] = cited from earlier work
[4] = cited from earlier work; remark: listed apart in the source
[5] = In vitro delivery of drug from ocular inserts in a humidified Franz-diffusion cell, artificial lachrymal fluid receiver, HPLC; type: physicochemical
From the text: Delivery is monitored in vitro using a Franz-diffusion cell, with the insert in contact with a dialysis membrane to provide support. A membrane with an appropriate molecular weight cut-off is used to allow the passage of pharmaceutical product but not polymer. The receiver solution is an artificial lachrymal fluid, containing NaHCO3 2.2 g/l; NaCl 6.26 g/l; KCl 1.79 g/l; CaCl2.2H2O 0.0735 g/l; MgCl2.6H2O 0.0964 g/l in distilled water (pH to 7.5 with 0.1 M HCl). The temperature used in the diffusion cells is controlled so the internal temperature is 32° C. (the temperature of the corneal surface). The tops of the diffusion cells are sealed using parafilm and the system equilibrated overnight (to give a humid environment). The insert is weighed, then placed on the dialysis membrane and resealed. Samples of delivered pharmaceutical product are removed from the receiver fluid and replaced with fresh liquid to maintain a constant volume. Pharmaceutical product in the receiver fluid is analysed by HPLC. Samples of 1 ml are withdrawn and replaced at given intervals through the side arm. The insert is placed in the donor at time 0. Samples were analysed using HPLC methods described above. It is recommended that betaxolol is analysed within 24 h, or samples frozen. The quantity of drug which has been released at any given time can be calculated using the following equation: […] wherein: Vr is the volume of receiver (ml) Vs the sample volume C[n] is the concentration in the dissolution medium (mg/l) ΣC[m] is the sum total of previous concentrations (mg/l) Mt is the drug released at time t (mg)

## CC(C)NCC(O)COc1ccc(CCOCC2CC2)cc1 (stereo not shown) [Betaxolol]
[1]; after topical administration
  time of maximum effect: about 2 hours
[1]; topical administration
  onset of action: ≤ 30 min

## CCNC(=O)CCC/C=C\C[C@@H]1[C@@H](/C=C/[C@@H](O)CCc2ccccc2)[C@H](O)C[C@@H]1O [bimatoprost]
[2]
  efficiency in decreasing the 24-h IOP: more efficient in decreasing the 24-h IOP

## O=C(O)CCC/C=C\C[C@@H]1[C@@H](CC[C@@H](O)CCc2ccccc2)[C@H](O)C[C@@H]1O [latanoprost acid]
[3]
  half-life in aqueous humor: 2.8 h

## CC(C)OC(=O)CCC/C=C\C[C@@H]1[C@@H](CC[C@@H](O)CCc2ccccc2)[C@H](O)C[C@@H]1O [latanoprost]
[2]
  efficiency in decreasing the 24-h IOP: more efficient in decreasing the 24-h IOP
[4]; acetone and ethanol
  solubility in acetone and ethanol: soluble
[4]; water
  solubility in water: insoluble

## CC(C)(C)NC[C@H](O)COc1nsnc1N1CCOCC1 [timolol, timolol maleate]
[5]; laminated travoprost/timolol insert, 6 hours
  timolol released by 6 hours from the beginning of the experiment: over 90%
[5]; laminated travoprost/timolol insert, first 5 hours
  timolol released for the first 5 hours: essentially no timolol was released
[2]; night
  capacity in decreasing IOP at night: reduced capacity in decreasing IOP at night

## CC(C)OC(=O)CCC/C=C\C[C@@H]1[C@@H](/C=C/[C@@H](O)COc2cccc(C(F)(F)F)c2)[C@H](O)C[C@@H]1O [travoprost]
[5]; laminated travoprost/timolol insert, humidity, 32° C., FIG. 5
  period over which travoprost was released at a substantially constant rate: about 8 hours
[5]; single layer PEO insert with 10% carbopol, travoprost alone, humidity, 32° C., FIG. 4
  period over which travoprost was released at a substantially-constant rate: about 8 hours
[2]
  efficiency in decreasing the 24-h IOP: more efficient in decreasing the 24-h IOP

Source: US20090155338A1, “Chronotherapeutic Ocular Delivery System Comprising a Combination of Prostaglandin and a Beta-Blocker for Treating Primary Glaucoma” (ASTON UNIVERSITY, priority 2005, published 2009)
